From patent publication US20170304251A1, “AVOCADO-DERIVED LIPIDS FOR USE IN TREATING LEUKEMIA” (priority 2014, published 2017)
Read-outs that look alike come from different tables or passages of the source.

What was measured:
Type in all cases: cell-based
TEX cells [1] = experiment: Hypoxia experiments, sulforhodamine B assay
Method: (A) Jurkat T cells were cultured in 50 ng/ml of ethidium bromide, […] sodium pyruvate and 50 μg/ml uridine for 60 days to create Jurkat-EtBr cells which lack functional mitochondrial. To confirm that Jurkat-EtBr cells lack mitochondria, the mitochondria specific markers adenine nucleotide translocator (ANT) and complex I (ND1) were measured by Western blotting. (B) Avocatin B's activity was tested in cells with (JURK) and with reduced (JURK-EtBr) mitochondria. Viability was measured by the ANN/PI assay and flow cytometry and data are presented as mean percentage of live cells (i.e., ANN/PI^−)±SD from representative experiments. […] Cell viability was measured by the sulforhodamine B assay, as described in the methods, following a 72 hour incubation period. Data are presented as percent viable. (D) Uncoupling protein 2 (UCP2) was measured in whole cell lysates of avocatin B (10 μM) or DMSO-control treated TEX cells by Western blotting. Arbitrary units (AU) are presented as fold change (compared to the 6 hour time point) and were calculated by dividing each treatment lane by the densitometry of its loading control. Densitometry was calculated as outlined in the methods.
Cell growth and viability were measured by the sulforhodamine B assay (Sigma Chemical) as previously described^8 following 72 hours of incubation.

TEX cells [2] = experiment: Propidium iodide staining and flow cytometry (Example 6); details: increasing concentrations up to 10 micromolar
Method: Avocadyne, avocadene and avocatin B were tested for their toxicity to leukemic cells using TEX cells. The TEX cells were treated with increasing concentrations of each lipid (up to 10 micromolar) and subsequently stained with propidium iodide (PI), which stains only dead cells. The percent viability was measured using flow cytometry gating on PI positive and PI negative cells.

TEX leukemia cells = experiment: MTS cell growth and viability assay, 72 hours
Method: Leukemia (OCI-AML2) cells were cultured in Iscove's Modified Dulbecco's Medium (IMDM) (Life Technologies; Grand Island, N.Y.) supplemented with 10% Fetal Bovine Serum (FBS; Seradigm; Providence, Utah) and antibiotics ([…]; Sigma Chemical; St. Louis, Mo.). TEX leukemia cells were cultured in 15% FBS, antibiotics and 2 mM L-glutamine (Sigma Chemical), 20 ng/ml stem cell factor and 2 ng/ml IL-3 (Peprotech; Hamburg Germany). Primary human samples (fresh and frozen) were obtained from the peripheral blood of AML patients who had at least 80% malignant cells among the mononuclear cells and cultured at 37° C. in IMDM, 20% FBS and antibiotics (see table 1a and 1 b for clinical parameters). […] Cell growth and viability was measured using the 3-(4,5-dimethylthiazol-2-yl)-5-(3-carboxymethoxyphenyl)-2-(4-sulfophenyl)-2H-tetrazolium inner salt (MTS) reduction assay (Promega; Madison, Wis.) according to the manufacturer's protocol and as previously described^7. Cells were seeded in 96-well plates, treated with drug for 72 hours and optical density (OD) was measured at 490 nm. Cell viability was also assessed by the trypan blue exclusion assay and by Annexin V and PI staining (Biovision; Mountainview, Calif.), as previously described^7. […] After 72 hours, cell proliferation and viability were measured by the MTS assay.

TEX cells [3] = experiment: Reactive oxygen species detection (DCFH-DA, DHE, flow cytometry)
From the text: Reactive oxygen species (ROS) were detected using 2′,7′dichlorohydrofluorescein-diacetate (DCFH-DA; Sigma Chemical) and dihyodroethidium (DHE; Sigma Chemical). DCFH-DA is hydrolyzed by intracellular esterase to produce a non-fluorescent DCFH product. It can then be oxidized by ROS to produce a highly fluorescent DCF product^14. DHE is a superoxide indicator which upon contact with superoxide anions produces the fluorescent product 2-hydroxyethidium^15. Following drug treatment, TEX cells (5×10^5) were collected and washed in PBS (Sigma-Aldrich). Cells were stained with 5 μM (final concentration) DCFH-DA or 10 μM DHE and allowed to incubate for 30 minutes in a humidified atmosphere containing 5% CO2 at 37° C. Samples were then washed in PBS and ROS was measured by flow cytometry using the Guava EasyCyte 8HT (Millipore). Data were analyzed with GuavaSoft 2.5 software (Millipore).

[4] = test system: fatty acid oxidation in TEX cells; experiment: Fatty acid oxidation, oxygen consumption rate (Seahorse XF24); details: avocatin B 10 μM, etomoxir 100 μM, palmitate 175 μM
Method: Measurement of oxygen consumption rates were performed using a Seahorse XF24 extracellular flux analyzer (Seahorse Bioscience; North Billerica, Mass.). TEX cells were cultured in α-Minimum Essential Medium (Life Technologies) containing 1% FBS and plated at 1×10^5 cells/well in poly-L-Lysine (Sigma Chemical) coated XF24 plates. Cells were incubated with etomoxir (100 μM; Sigma Chemical) or vehicle control for 30 minutes at 37° C. in a humidified atmosphere containing 5% CO2. Next, palmitate (175 μM; Seahorse Bioscience) or avocatin B (10 μM) was added and immediately transferred to the XF24 analyzer. Oxidation of exogenous fatty acids was determined by measuring mitochondrial respiration through sequential injection of 5 μM (final concentration) oligomycin, an ATP synthase inhibitor, (Millipore, Billerica, Mass.), 5 μM CCCP, a hydrogen ion ionophore, (Sigma Chemical), and 5 μM rotenone (Millipore)/5 μM antimycin A, which inhibit complex III activity, (Sigma Chemical). Fatty acid oxidation was determined by the change in oxygen consumption following oligomycin and CCCP treatment and prior to antimycin and rotenone treatment, according to the manufacturer's protocol and as described in Abe et al. (2013)^13. Data were analyzed with XF software (Seahorse Bioscience).

TEX cells [5] = experiment: NADPH, NADH and GSH fluorimetric detection; details: avocatin B 10 μM, etomoxir 100 μM; also in the presence of palmitate 175 μM
Method: Nicotinamide adenine dinucleotide phosphate (NADPH), nicotinamide adenine dinucleotide (NAD) and glutathione (GSH) were measured by commercially available fluorimetric kits (e.g. Amplite™ Fluorimetric kit (AAT Bioquest; Sunnyvale, Calif.) according to the manufacturers' protocol and as previously described^16, following incubation of increasing duration with avocatin B (10 μM). For NAPDH studies, cells were also incubated with palmitate (175 μM) in the presence or absence of etomoxir. For NADH and GSH studies, cells were incubated in the presence of palmitate and N-acetylcysteine (NAC; 1 mmol/L), respectively. Data are presented as a percent NAD, NADPH or GSH compared to control treated cells±SD.

TEX cells [6] = experiment: ANN/PI viability of TEX cells with antioxidants or etomoxir; details: 100 μM, 72 hours
Method: FIG. 6: Avocatin B inhibits fatty acid oxidation resulting in reduced NADPH and elevated ROS. (A) Illustration of fatty acid oxidation in mitochondria. Long chain fatty acids (LCFA) enter the mitochondria via CPT1 for fatty acid oxidation to yield acetyl-CoA. Acetyl-CoA enters the TCA cycle to generate NADPH, an enzymatic co-factor and antioxidant. (ME: malic enzyme; IDH: isocitrate dehydrogenase; α-KG: α-ketoglutarate). (B) Oxidation of exogenous fatty acids was assessed by measuring the oxygen consumption rate (OCR) in TEX cells treated with palmitate (175 μM), avocatin B (10 μM), avocatin B and palmitate or palmitate and etomoxir (100 μM). […] Effects on fatty acid oxidation were measured with the Seahorse Bioanalyzer, as detailed in the methods section, and (C) quantified by peak area after oligomycin and CCCP treatment, as described by the manufacturer's protocol and detailed in the methods. […] Viability was measured by the ANN/PI assay and data are presented as mean percentage of viable cells (i.e., ANN^−/PI^−)±SD from representative experiments. […] Data, percentage of NADH compared with vehicle control-treated cells±SD; (H) GSH was measured in TEX cells in the presence or absence of NAC using a commercially available fluorimetric assay following treatment with avocatin B ([…]), according to the manufacturers protocol. […]

[7] = 72 hours, avocatin B 2 μM, antimycin A 1 μM, rotenone 3 μM, daunorubicin 5 nM, cytarabine 4 nM

COc1cccc2c1C(=O)c1c(O)c3c(c(O)c1C2=O)C[C@@](O)(C(C)=O)C[C@@H]3O[C@H]1C[C@H](N)[C@H](O)[C@H](C)O1 [daunorubicin]
activity in hypoxic (1% oxygen) versus normoxic (21% oxygen) conditions (TEX cells [1]; [7]): unaffected

C=CCCCCCCCCCCCC(O)CC(O)CO (stereo not shown) [avocadene]
amount of cell death (PI positive) in TEX cells, rank among the lipids (TEX cells [2]): least amount of cell death

cytarabine
activity in hypoxic (1% oxygen) versus normoxic (21% oxygen) conditions (TEX cells [1]): unaffected

C#CCCCCCCCCCCCC(O)CC(O)COC(C)=O (stereo not shown) [avocadyne acetate]
cytotoxicity toward TEX cells (TEX leukemia cells): induce cytotoxicity | ROS activity of avocatin analogues (TEX cells [3]; Example 5, FIG. 12): induce ROS activity | ROS activity of avocatin analogues (TEX cells [3]; Example 5, FIG. 12, listed as Avocadyne Acetate): induce ROS production

antimycin
activity in hypoxic (1% oxygen) versus normoxic (21% oxygen) conditions (TEX cells [1]; [7]): reduced

C=C(C)[C@H]1Cc2c(ccc3c2O[C@@H]2COc4cc(OC)c(OC)cc4[C@@H]2C3=O)O1 [rotenone]
activity in hypoxic (1% oxygen) versus normoxic (21% oxygen) conditions (TEX cells [1]; [7]): reduced

CCOC(=O)[C@@]1(CCCCCCOc2ccc(Cl)cc2)CO1 [etomoxir]
oxidation of exogenous palmitate (oxygen consumption rate) [4]: blocked | reduction in NADPH (TEX cells [5]): ~50% | effect of etomoxir on TEX viability (TEX cells [6]): does not impart toxicity | effect of etomoxir on TEX viability (TEX cells [6]; listed as Etomoxir): did not reduce viability

C#CCCCCCCCCCCCC(O)CC(O)CO (stereo not shown) [avocadyne]
cytotoxicity toward TEX cells (TEX leukemia cells): induce cytotoxicity | ROS activity of avocatin analogues (TEX cells [3]; Example 5, FIG. 12): induce ROS activity | ROS activity of avocatin analogues (TEX cells [3]; Example 5, FIG. 12, listed as Avoadyne): induce ROS production | amount of cell death (PI positive) in TEX cells, rank among the lipids (TEX cells [2]): greatest amount of cell death
